Assay results as given in PubChem BioAssay (NCI).
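Values below derive from 48-hour exposures of cells grown in 96-well plates, with endpoints linearly interpolated between the two concentrations bracketing the appropriate inhibition level. At the TGI there is no net growth.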

How the values were obtained:
Assay in all cases: NCI-60 cell line screen, 48 h
HOP-92 NSCLC = tested on: HOP-92 NSCLC
UO-31 renal = tested on: UO-31 renal
U251 CNS = tested on: U251 CNS
HOP-62 NSCLC = tested on: HOP-62 NSCLC
HCC-2998 colon = tested on: HCC-2998 colon
SNB-19 CNS = tested on: SNB-19 CNS
UACC-257 melanoma = tested on: UACC-257 melanoma
SF-268 CNS = tested on: SF-268 CNS
SK-OV-3 ovarian = tested on: SK-OV-3 ovarian
DU-145 prostate = tested on: DU-145 prostate

## CC(C)(CN1CCCCC1)C(=O)CC(SCCS(=O)(=O)O)c1ccc(Br)cc1 (stereo not given)
HOP-92 NSCLC
  TGI: 2.08 µM
UO-31 renal
  TGI: 2.99 µM
U251 CNS
  TGI: 3.16 µM
HOP-62 NSCLC
  TGI: 18 µM
HCC-2998 colon
  TGI: 4.55 µM
SNB-19 CNS
  TGI: 5.44 µM
UACC-257 melanoma
  TGI: 11.5 µM
SF-268 CNS
  TGI: 5.48 µM

## NC1=NS(=O)(=O)N=C(N)C1=Cc1ccc([N+](=O)[O-])o1
HOP-92 NSCLC
  TGI: 26.7 µM
UO-31 renal
  TGI: 31.8 µM
U251 CNS
  TGI: > 100 µM
SK-OV-3 ovarian
  TGI: > 100 µM
HCC-2998 colon
  TGI: 45.8 µM
SNB-19 CNS
  TGI: > 100 µM
UACC-257 melanoma
  TGI: 28.9 µM
SF-268 CNS
  TGI: 31.3 µM

## O=C1/C(=C/c2cccc(Oc3ccccc3)c2)N=C(c2ccccc2)N1c1nc2ccc(Sc3ccccc3)cc2[nH]1
HOP-92 NSCLC
  TGI: > 100 µM
UO-31 renal
  TGI: > 100 µM
U251 CNS
  TGI: > 100 µM
HOP-62 NSCLC
  TGI: > 100 µM
SK-OV-3 ovarian
  TGI: > 100 µM
HCC-2998 colon
  TGI: 26.3 µM
SNB-19 CNS
  TGI: > 100 µM
UACC-257 melanoma
  TGI: 85.6 µM
SF-268 CNS
  TGI: > 100 µM
DU-145 prostate
  TGI: > 100 µM

## O=C1c2cc([N+](=O)[O-])ccc2NC2C(O)c3ccccc3N12 (stereo not given)
HOP-92 NSCLC
  TGI: 53.6 µM
UO-31 renal
  TGI: > 100 µM
U251 CNS
  TGI: > 100 µM
HOP-62 NSCLC
  TGI: > 100 µM
SK-OV-3 ovarian
  TGI: 36 µM
HCC-2998 colon
  TGI: > 100 µM
SNB-19 CNS
  TGI: > 100 µM
UACC-257 melanoma
  TGI: 55.3 µM
SF-268 CNS
  TGI: > 100 µM
DU-145 prostate
  TGI: 94.5 µM

## COc1cc(C(=O)Nc2nnc(S(N)(=O)=O)s2)cc(OC)c1OC
HOP-92 NSCLC
  TGI: > 100 µM
UO-31 renal
  TGI: > 100 µM
U251 CNS
  TGI: > 100 µM
HOP-62 NSCLC
  TGI: > 100 µM
SK-OV-3 ovarian
  TGI: > 100 µM
HCC-2998 colon
  TGI: > 100 µM
SNB-19 CNS
  TGI: > 100 µM
UACC-257 melanoma
  TGI: > 100 µM
SF-268 CNS
  TGI: > 100 µM
DU-145 prostate
  TGI: > 100 µM

## O=c1[nH]c(=O)n(C2CC(O)C(CO)O2)cc1C#Cc1ccc(C(F)(F)F)cc1 (stereo not given)
HOP-92 NSCLC
  TGI: > 100 µM
UO-31 renal
  TGI: > 100 µM
U251 CNS
  TGI: > 100 µM
HOP-62 NSCLC
  TGI: > 100 µM
SK-OV-3 ovarian
  TGI: > 100 µM
HCC-2998 colon
  TGI: > 100 µM
SNB-19 CNS
  TGI: > 100 µM
UACC-257 melanoma
  TGI: > 100 µM
SF-268 CNS
  TGI: > 100 µM

## O=c1oc2ccccc2cc1-c1nc2ccc([N+](=O)[O-])cc2o1
HOP-92 NSCLC
  TGI: > 100 µM
UO-31 renal
  TGI: > 100 µM
U251 CNS
  TGI: > 100 µM
HOP-62 NSCLC
  TGI: > 100 µM
SK-OV-3 ovarian
  TGI: > 100 µM
HCC-2998 colon
  TGI: > 100 µM
SNB-19 CNS
  TGI: 68.5 µM
UACC-257 melanoma
  TGI: > 100 µM
SF-268 CNS
  TGI: > 100 µM
DU-145 prostate
  TGI: > 100 µM

## O=C(Cc1nc2ccc(C(=O)c3ccccc3)cc2[nH]c1=O)C(=O)Nc1ccccc1[N+](=O)[O-]
HOP-92 NSCLC
  TGI: > 100 µM
UO-31 renal
  TGI: > 100 µM
U251 CNS
  TGI: > 100 µM
SK-OV-3 ovarian
  TGI: > 100 µM
HCC-2998 colon
  TGI: > 100 µM
UACC-257 melanoma
  TGI: > 100 µM
SF-268 CNS
  TGI: > 100 µM

## C#CC(C)(C)Oc1cc(OC)c2c(=O)c3ccccc3n(C)c2c1
UO-31 renal
  TGI: 22.5 µM
U251 CNS
  TGI: > 100 µM
HOP-62 NSCLC
  TGI: > 100 µM
SK-OV-3 ovarian
  TGI: 54.9 µM
HCC-2998 colon
  TGI: > 100 µM
SNB-19 CNS
  TGI: 93.8 µM
UACC-257 melanoma
  TGI: 26.4 µM
SF-268 CNS
  TGI: 73 µM
DU-145 prostate
  TGI: 55.8 µM

## CC(C)=CC(=O)O[C@@H]1CC(C)(C)CC2C3=CCC4[C@]56CC[C@](O)(OC5)C(C)(C)C6CC[C@@]4(C)C3(C)CC[C@]21C(=O)O (stereo not given in full)
U251 CNS
  TGI: > 100 µM
HOP-62 NSCLC
  TGI: > 100 µM
SK-OV-3 ovarian
  TGI: > 100 µM
HCC-2998 colon
  TGI: > 100 µM
SNB-19 CNS
  TGI: > 100 µM
UACC-257 melanoma
  TGI: > 100 µM
SF-268 CNS
  TGI: > 100 µM
DU-145 prostate
  TGI: > 100 µM

## Cn1c(N)c(/C=N/NC(=O)CC#N)c(=O)n(C)c1=O
UO-31 renal
  TGI: > 100 µM
U251 CNS
  TGI: > 100 µM
HOP-62 NSCLC
  TGI: > 100 µM
SK-OV-3 ovarian
  TGI: > 100 µM
HCC-2998 colon
  TGI: > 100 µM
SNB-19 CNS
  TGI: > 100 µM
UACC-257 melanoma
  TGI: > 100 µM
SF-268 CNS
  TGI: > 100 µM
DU-145 prostate
  TGI: > 100 µM

## O=C1CSC2(CC(/C=C/C=C/c3ccccc3)=NN2c2cccc(S(=O)(=O)O)c2)N1c1nc2ccccc2s1 (stereo not given)
HOP-92 NSCLC
  TGI: > 100 µM
UO-31 renal
  TGI: > 100 µM
U251 CNS
  TGI: 74.4 µM
HCC-2998 colon
  TGI: > 100 µM
SNB-19 CNS
  TGI: > 100 µM
UACC-257 melanoma
  TGI: > 100 µM

## O=C(Cn1c2ccc(Br)cc2c2nc3ccccc3nc21)NC1CCCCC1
HOP-92 NSCLC
  TGI: > 100 µM
UO-31 renal
  TGI: > 100 µM
U251 CNS
  TGI: > 100 µM
HOP-62 NSCLC
  TGI: > 100 µM
SK-OV-3 ovarian
  TGI: > 100 µM
HCC-2998 colon
  TGI: > 100 µM
SNB-19 CNS
  TGI: > 100 µM
UACC-257 melanoma
  TGI: > 100 µM
SF-268 CNS
  TGI: > 100 µM
DU-145 prostate
  TGI: > 100 µM

## C=C(CCOC)CCC1CCCCC(=C)C1=O (stereo not given)
UO-31 renal
  TGI: > 100 µM
U251 CNS
  TGI: > 100 µM
HOP-62 NSCLC
  TGI: > 100 µM
SK-OV-3 ovarian
  TGI: > 100 µM
HCC-2998 colon
  TGI: > 100 µM
SNB-19 CNS
  TGI: > 100 µM
SF-268 CNS
  TGI: > 100 µM
DU-145 prostate
  TGI: > 100 µM

## O=C1CCC2(CCC(=O)NC2=O)C(=O)N1
UO-31 renal
  TGI: > 100 µM
U251 CNS
  TGI: > 100 µM
HOP-62 NSCLC
  TGI: > 100 µM
SK-OV-3 ovarian
  TGI: > 100 µM
HCC-2998 colon
  TGI: > 100 µM
SNB-19 CNS
  TGI: > 100 µM
UACC-257 melanoma
  TGI: > 100 µM
SF-268 CNS
  TGI: > 100 µM

## CC1(C)CC(=O)C(/C=N/c2nc(-c3ccc(Br)cc3)cs2)=C(O)C1
HOP-92 NSCLC
  TGI: > 100 µM
UO-31 renal
  TGI: 73.1 µM
U251 CNS
  TGI: > 100 µM
HOP-62 NSCLC
  TGI: > 100 µM
SK-OV-3 ovarian
  TGI: > 100 µM
HCC-2998 colon
  TGI: 80.9 µM
SNB-19 CNS
  TGI: > 100 µM
UACC-257 melanoma
  TGI: 38.3 µM
DU-145 prostate
  TGI: > 100 µM

## C=CCc1c(O)c2ccccc2[nH]c1=O
HOP-92 NSCLC
  TGI: > 100 µM
UO-31 renal
  TGI: > 100 µM
U251 CNS
  TGI: > 100 µM
HOP-62 NSCLC
  TGI: > 100 µM
HCC-2998 colon
  TGI: > 100 µM
SNB-19 CNS
  TGI: > 100 µM
UACC-257 melanoma
  TGI: > 100 µM
DU-145 prostate
  TGI: > 100 µM

## O=C1CCC2(CC1)Cc1ccccc1C2O (stereo not given)
UO-31 renal
  TGI: > 100 µM
U251 CNS
  TGI: > 100 µM
HOP-62 NSCLC
  TGI: > 100 µM
SK-OV-3 ovarian
  TGI: > 100 µM
HCC-2998 colon
  TGI: > 100 µM
SNB-19 CNS
  TGI: > 100 µM
UACC-257 melanoma
  TGI: > 100 µM
SF-268 CNS
  TGI: > 100 µM
DU-145 prostate
  TGI: > 100 µM

## Cc1cnc(Cl)nc1C(C#N)c1nc2ccccc2n1C (stereo not given)
HOP-92 NSCLC
  TGI: > 100 µM
UO-31 renal
  TGI: > 100 µM
U251 CNS
  TGI: 45.5 µM
HOP-62 NSCLC
  TGI: > 100 µM
SK-OV-3 ovarian
  TGI: > 100 µM
SNB-19 CNS
  TGI: > 100 µM
UACC-257 melanoma
  TGI: > 100 µM
SF-268 CNS
  TGI: > 100 µM
DU-145 prostate
  TGI: > 100 µM

## N#Cc1c(N)c(-c2ccc(Cl)cc2)c(F)c2ccccc12
HOP-92 NSCLC
  TGI: 59.4 µM
UO-31 renal
  TGI: > 100 µM
U251 CNS
  TGI: > 100 µM
HOP-62 NSCLC
  TGI: > 100 µM
SK-OV-3 ovarian
  TGI: > 100 µM
HCC-2998 colon
  TGI: > 100 µM
SNB-19 CNS
  TGI: > 100 µM
UACC-257 melanoma
  TGI: > 100 µM
SF-268 CNS
  TGI: > 100 µM

## CCCCCCCCCCCCC(=O)NCC(=O)NC(Cc1ccccc1)C(=O)Oc1ccc([N+](=O)[O-])cc1 (stereo not given)
UO-31 renal
  TGI: > 100 µM
HOP-62 NSCLC
  TGI: > 100 µM
HCC-2998 colon
  TGI: > 100 µM
SNB-19 CNS
  TGI: > 100 µM
UACC-257 melanoma
  TGI: > 100 µM
SF-268 CNS
  TGI: > 100 µM
DU-145 prostate
  TGI: > 100 µM

## c1ccc(C2=NN3CN(N2)c2ccccc2OCCCOc2ccccc23)cc1
UO-31 renal
  TGI: > 100 µM
U251 CNS
  TGI: > 100 µM
HOP-62 NSCLC
  TGI: > 100 µM
SNB-19 CNS
  TGI: > 100 µM
SF-268 CNS
  TGI: > 100 µM

## CC(=O)Oc1ccc2cc(Oc3ccc(Cl)cc3)c(=O)oc2c1
HOP-92 NSCLC
  TGI: > 100 µM
UO-31 renal
  TGI: > 100 µM
U251 CNS
  TGI: > 100 µM
HOP-62 NSCLC
  TGI: > 100 µM
HCC-2998 colon
  TGI: > 100 µM
SNB-19 CNS
  TGI: > 100 µM
UACC-257 melanoma
  TGI: 78.7 µM
SF-268 CNS
  TGI: > 100 µM
DU-145 prostate
  TGI: > 100 µM
